Patent publication US8022228B2, “Crystal form of asenapine maleate” (N.V. Organon, priority 2005, dated 2011)
Counter-ions that a name gives are not always drawn. Blank lines part the entries; values can stand above or below the molecule they belong to.

Key:
[1] = known crystalline form, Funke et al.; cited from earlier work
[2] = Particle size distribution by laser diffraction (LDS method); format: physicochemical; conditions: for D95 of crystallization sample: LDS; for D95 of micronization sample: after micronization, Chrispro MC200 jet mill, nitrogen, 7 bar
Procedure: LDS method. A dispersion liquid has been made consisting of (0.7 mg/ml) lecithin (used as a surfactant) in iso-octane saturated with asenapine maleate. The solution is stirred overnight. Subsequently the solution is filtered over a 0.22 μm filter. The samples were prepared by weighing approximately 30 mg asenapine maleate in a centrifugal tube and adding 2 ml of the dispersion liquid. Ultrasonic treatment of the samples was performed for 2 minutes in an ultrasonic bath (Transsonic 310). Subsequently, the particle size distribution of the sample was analyzed using laser diffraction (Malvern Mastersizer S, UK). The particle size distribution has been calculated using the Fraunhofer algorithm.

[3] = Particle size observed in micrographs / microscopic picture; format: physicochemical; conditions: non-micronized crystallized batch
[4] = Micronization in jet mill, polymorphic form of the product by XRPD; format: physicochemical; conditions: polymorphic form after micronization at 7 bar
Procedure: X-ray powder diffraction (XRPD) spectra were obtained on an […] Panalytical Reflection diffractometer in a Bragg-Brantano setup, Cu-Kα radiation, settings 45 kV and 40 mA together with an X'celerator detector. The slits used: anti-scatter slit 1°, divergence slit 1⁄2°, soller slits 0.02 rad. Measuring conditions: scan range 5-40°2-[…] (θ), step size 0.0167°2-[…]. The samples were measured on a rotating sample disk of Si with a speed of 15 rpm.

SMILES: CN1CC2c3ccccc3Oc3ccc(Cl)cc3C2C1.O=C(O)/C=C\C(=O)O (centres unmarked) [asenapine maleate]
- size of crystalline particles as observed in micrographs [1]: over 100 μm

SMILES: CN1CC2c3ccccc3Oc3ccc(Cl)cc3C2C1 (centres unmarked) [batch C1, asenapine maleate]
- D95 of crystallization sample ([2]; non-micronized crystallized batch, listed as C1): 199 μm

SMILES: CN1CC2c3ccccc3Oc3ccc(Cl)cc3C2C1 (centres unmarked) [batch C2, asenapine maleate]
- D95 of crystallization sample ([2]; non-micronized crystallized batch, listed as C2): 221 μm

SMILES: CN1CC2c3ccccc3Oc3ccc(Cl)cc3C2C1 (centres unmarked) [batch C5, asenapine maleate]
- particle size in microscopic picture [3]: up to 100 μm
- average particle size by LDS ([2]; non-micronized crystallized batch): ~30 μm
- D95 of crystallization sample ([2]; non-micronized crystallized batch, listed as C5): 30-100 μm

Now from value to molecule:

- polymorph of micronization sample ([4]; listed as M1): >95% orthorhombic
- D95 of micronization sample ([2]; listed as M1): <12 μm
SMILES: CN1CC2c3ccccc3Oc3ccc(Cl)cc3C2C1 (centres unmarked) [batch M1, asenapine maleate]

- polymorph of micronization sample ([4]; listed as M2): >95% monoclinic
- D95 of micronization sample ([2]; listed as M2): <14 μm
SMILES: CN1CC2c3ccccc3Oc3ccc(Cl)cc3C2C1 (centres unmarked) [batch M2, asenapine maleate]

- polymorph of micronization sample ([4]; listed as M3): 80% orthorhombic, 20%
- D95 of micronization sample ([2]; listed as M3): <16 μm
SMILES: CN1CC2c3ccccc3Oc3ccc(Cl)cc3C2C1 (centres unmarked) [batch M3, asenapine maleate]

- polymorph of micronization sample ([4]; listed as M4): >95% orthorhombic
- D95 of micronization sample ([2]; listed as M4): <9 μm
SMILES: CN1CC2c3ccccc3Oc3ccc(Cl)cc3C2C1 (centres unmarked) [batch M4, asenapine maleate]

- polymorph of micronization sample ([4]; listed as M5): >95% orthorhombic
- D95 of micronization sample ([2]; listed as M5): <6 μm
SMILES: CN1CC2c3ccccc3Oc3ccc(Cl)cc3C2C1 (centres unmarked) [batch M5, asenapine maleate]

- polymorph of micronization sample ([4]; listed as M6): >95% orthorhombic
- D95 of micronization sample ([2]; listed as M6): <10 μm
SMILES: CN1CC2c3ccccc3Oc3ccc(Cl)cc3C2C1 (centres unmarked) [batch M6, asenapine maleate]

- polymorph of micronization sample ([4]; listed as M7): >95% orthorhombic
- D95 of micronization sample ([2]; listed as M7): <12 μm
SMILES: CN1CC2c3ccccc3Oc3ccc(Cl)cc3C2C1 (centres unmarked) [batch M7, asenapine maleate]
